The source of these data is US4931288A, “Controlled release compositions (II)” (Lloyds Bank PLC, priority 1979, dated 1990).

The nature of data set [1]: Clinical induction of abortion. The following applies: from 1 to 2.5 mg. The format is in vivo, human.
Data set [2] can be described thus: In vitro release of prostaglandin from dry polymer cylinders/pessaries/slices into phosphate buffer pH 7.4 via 3H activity. The following applies: for T1/2: dried polymer sample, pH 7.4, 37°; for t1/2: pH 7.4, 37° C.
Data set [3] can be described thus: Clinical pilot study of hydrogel vaginal pessaries containing PGE2 10 mg (induction of labour). It is filed as in vivo, human. Here is the method:
Hydrogel vaginal pessaries, formulated as above, each containing PGE2 10 mg, have been evaluated clinically in a pilot study.

A short description of data set [4]: In vitro release of prostaglandin from swollen (undried) polymer cylinders/pessaries into phosphate buffer pH 7.4 at 37° C. The format is physicochemical. As to conditions: for t1/2: pH 7.4, 37°. Here is the method:
(B) The procedure described in (A) is followed but the swollen cylinders obtained after 24 hours treatment with the PGE2 solution are not dried but are tested directly for the release of PGE2 into pH 7.4 phosphate buffer at 37° C. In this instance a typical half life is of the order of 10 hours.
To study the release of PGE2 from a fully swollen pessary into phosphate buffer pH 7.4 at 37° the polymer is swollen in an ethanol/water solution of PGE2 of 0.87 g C2 H5 OH solution of 1% w/v Prostin E2 contains 11 mg PGE2 0.09 g C2 H5 OH containing 1 μCi of ^3 HPGE2 is added, then 3.56 g H2 O. A slice of polymer 3.1 mm×10 mm×30 mm weighing 1.13 g is added to the prepared PGE2 solution in 3.7/1, w/w, water/ethanol in a polythene bag. The bag is sealed and the polymer allowed to swell over 20 hours. The swollen polymer slice is then removed and the surface wiped dry with a tissue before weighing. Uptake of solution: 4.44 g i.e. almost all the PGE2 is contained in the swollen gel. The pessary is rinsed in distilled water and then transferred to phosphate buffer solution pH 7.4 at 37° C. The release of PGE2 into the surrounding solution is measured by frequent regular replacement of the buffer and counting the activity of ^3 H in the withdrawn solution. […] It is also possible to calculate the diffusion coefficient of PGE2 in the swollen gel D=0.83×10^-6 cm^2 sec^-1.

With `CCCCC(C)(C)[C@@H](O)/C=C/[C@H]1[C@H](O)CC(=O)[C@@H]1CCCC/C=C/C(=O)O` (relative stereo) [16:16-dimethyl-trans-Δ^2 -PGE1], the induction of abortion entry in data set [1] is listed as “Induction of abortion has been effected”.
Turning to `CCCCC(C)(C)[C@H](O)/C=C/[C@H]1[C@H](O)CC(=O)[C@@H]1CCCC/C=C/C(=O)OC` [16,16-dimethyl-trans Δ^2 -PGE1 methyl ester], the “half life of release” value in data set [2] (Example 11, dry cylinders, PEG 6,000/MDI/TMP (0.75 molar) polymer, pH 7.4 phosphate buffer, typical) was roughly 95 h.
Take `CS(=O)(=O)NC(=O)CCC/C=C\C[C@H]1C(=O)C[C@@H](O)[C@@H]1/C=C/[C@@H](O)COc1ccccc1` [N methanesulphonyl 15z, 11α, 13E 15α)-9-Oxo-11,15-dihydroxy-16-phenoxy-w-tetranorprosta-5,13 dien-1-amide]: the “half-life of the drug in the pessary” value in data set [2] (Example 15, dried slice 1.2×24×40 mm, buffer pH 7.4, 37° C.) worked out at 3.7 h.
Take `CCCCC(C)(C)[C@H](O)/C=C/[C@H]1[C@H](O)CC(=O)[C@@H]1C/C=C\CCCC(=O)OC` [Ono, 16,16-dimethyl PGE2, methyl ester]: in data set [2] (Example 13, 3 different thicknesses), the “dependence of half life t1/2 on thickness” value is recorded as “directly proportional to the square of the thickness”. Moreover, the T1/2 stood at 0.5 h in data set [2] (Example 13, thickness 0.25 mm); 3.0 h in data set [2] (Example 13, thickness 0.65 mm); 6.3 h in data set [2] (Example 13, thickness 1.00 mm). The “half life of Ono in this sample” value in data set [2] (Example 13, dried slice 1 mm×11 mm×22 mm, phosphate buffer pH 7.4, 37°) was determined as 6.3 h.
On to `CCCCC(C)(C)C(O)C=CC1C(O)CC(=O)C1CC=CCCCC(=O)Oc1ccc(C=NNC(N)=O)cc1` (stereo not drawn) [PG ester, 16,16 dimethyl prostaglandin E2 benzaldehyde semi-carbazone], for which, in data set [2] (Example 14, 0.25 mm slice), the “duration of the release pattern” value came out at 2 weeks. The release rate in data set [2] (Example 14, 0.25 mm slice, day 2) came to 50 µg/h; in data set [2] (Example 14, 0.25 mm slice, overnight), 13 µg/h. Moreover, the “character of the release” value in data set [2] (Example 14, thin (0.25 mm) sample) is reported as “essentially that of a fully swollen device containing a dispersion rather than a solution of a low solubility prostaglandin analogue”.
In the case of `CCCCC[C@H](O)/C=C/[C@H]1[C@H](O)CC(=O)[C@@H]1C/C=C\CCCC(=O)O` [PGE2], in data set [2] (Example 10(A), dry cylinders, PEG 6,000/MDI/TMP (0.75 molar) polymer, pH 7.4 phosphate buffer, 37° C., typical), the “half life for release of the drug” value was roughly 20 h. Besides, the t1/2 in data set [2] (Example 12, dry pessary, thickness 1.2 mm) was 1.4 h; in data set [2] (Example 12, dry pessary, thickness 1.5 mm), 2.4 h; in data set [2] (Example 12, dry pessary, thickness 1.7 mm), 2.7 h; in data set [2] (Example 12, dry pessary, thickness 2.6 mm), 7.0 h; in data set [2] (Example 12, dry pessary, thickness 2.9 mm), 8.0 h; in data set [2] (Example 12, dry pessary, thickness 3.4 mm), 12.0 h. Besides, the t1/2 in data set [4] (Example 12, fully swollen pessary, thickness 1.2 mm) worked out at 0.7 h; in data set [4] (Example 12, fully swollen pessary, thickness 2.4 mm), 2.0 h; in data set [4] (Example 12, fully swollen pessary, thickness 3.1 mm), 2.7 h. Further, the “half life t1/2 of the PGE2 in this polymer” value in data set [2] (Example 12, dry pessary, phosphate buffer pH 7.4, 37° C.) was 7 h. The “labour and delivery outcome” value in data set [3] (patients with average or favourable induction prospects, PGE2 treatment alone, without orthodox induction) was “became established in labour and made good progress, with successful vaginal delivery”. Further, the cervical ripening entry in data set [3] (unfavourable patients) is recorded as “progressive”. For the same compound, the establishment in labour result in data set [3] (unfavourable patients) is recorded as “all were established in labour”. For the same compound, the “latent phase of labour” value in data set [3] (unfavourable patients) is listed as “expectedly longer”. The “agreement of clinical experience with in vitro release” value in data set [3] (vaginal pessaries, PGE2 10 mg) was “accorded well with in vitro release studies”. Besides, the “course of uterine activity” value in data set [3] (vaginal pessaries, PGE2 10 mg) is recorded as “maintained or gradually increased”. The “time to appreciable uterine activity, not requiring analgesia” value in data set [3] (vaginal pessaries, PGE2 10 mg) is 1 to 2 h. In data set [3] (vaginal pessaries, PGE2 10 mg, all cases), the “ripening of the cervix” value is recorded as “significant `ripening` of the cervix in all cases”. For the same compound, the “half life for release” value in data set [4] (Example 10(B), swollen cylinders not dried, pH 7.4 phosphate buffer, 37° C., typical) is roughly 10 h. Moreover, in data set [4] (Example 12), the “half life in the fully swollen device relative to the initially dry device” value is given as “approximately half of the half life in the initially dry device”. Besides, the “constancy of the rate of release” value in data set [4] (Example 12, fully swollen devices) was “do not provide the desirable reasonably constant period of the rate of release”. Moreover, the “half life t1/2 of PGE2 in the swollen pessary” value in data set [4] (Example 12, fully swollen pessary 3.1 mm×10 mm×30 mm, phosphate buffer pH 7.4, 37°) is 2.7 h. Also, in data set [4] (Example 12, fully swollen pessary, calculated from release measurements), the “diffusion coefficient of PGE2 in the swollen gel, D” value is 0.83×10^-6 cm^2 sec^-1.
